In patent publication US10517889B2, “Modulators of SMAD7 expression” (Ionis Pharmaceuticals, Inc., priority 2017, dated 2019):
Strand notation (5' to 3'): a small letter for the sugar, then the base; units joined by * are phosphorothioate-linked, units joined directly phosphodiester-linked; [ ] holds rarer units or linkages, { } end groups; capitals alone tell only the bases. k = constrained ethyl (cEt); [5mC] = 5-methylcytosine; d = 2'-deoxy (DNA)

System: human SMAD7 mRNA
Experiment: Antisense inhibition of human SMAD7 mRNA expression in Hep3B cells by 3-10-3 cEt gapmers, 10,000 nM, electroporation (Example 2)
Assay type: cell-based
Details: approximately 24 hours
In short: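 Percent inhibition of SMAD7 mRNA, relative to untreated cells, after ~24 h exposure of electroporated Hep3B cells to 10,000 nM cEt gapmer; levels by qRT-PCR, corrected for total RNA.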

[1] = Hep3B cells, electroporation with 10,000 nM antisense oligonucleotide, RTS5062, percent inhibition of SMAD7 mRNA relative to untreated control cells
[2] = SMAD7 mRNA, Hep3B cells, 10,000 nM antisense oligonucleotide, electroporation, primer probe set RTS5062, relative to untreated control cells
[3] = Hep3B cells, electroporation with 10,000 nM antisense oligonucleotide, SMAD7 mRNA by RT-PCR (RTS5062), relative to untreated control cells
[4] = SMAD7 mRNA, Hep3B cells, electroporation with 10,000 nM antisense oligonucleotide, primer probe set RTS5062, relative to untreated control cells
[5] = Hep3B cells, electroporation with 10,000 nM antisense oligonucleotide, primer probe set RTS5062, relative to untreated control cells
[6] = Hep3B cells, electroporation, 10,000 nM antisense oligonucleotide, RTS5062, relative to untreated control cells
[7] = Hep3B cells, 10,000 nM antisense oligonucleotide, electroporation, RT-PCR primer probe set RTS5062, relative to untreated control cells

## 799665 (antisense kG*kA*kT*dG*d[5mC]*d[5mC]*dA*dG*d[5mC]*dA*dA*dG*dG*kA*kT*k[5mC]) [compound 799665]
[1]
  % Inhibition: 57%

## 800837 (antisense kA*kA*kA*d[5mC]*d[5mC]*dT*dT*dT*dG*dT*dA*dG*dT*kT*kA*kG) [compound 800837]
[2]
  % Inhibition: 41%

## 799685 (antisense kG*kA*kT*dT*dT*dT*dA*dA*dA*dT*dG*d[5mC]*dT*kG*kT*k[5mC]) [compound 799685]
[1]
  % Inhibition: 25%

## 772635 (kA*kA*kG*d[5mC]*dT*dG*dA*dT*d[5mC]*dT*dG*d[5mC]*dA*k[5mC]*kG*kG; antisense) [compound 772635]
[2]
  % Inhibition: 43%

## 800100 (antisense kT*kG*k[5mC]*dA*dG*dA*dG*d[5mC]*dA*d[5mC]*dA*dG*dA*kT*kG*k[5mC]) [compound 800100]
[3]
  % Inhibition: 16%

## 829955 (k[5mC]*kT*kT*dG*dT*d[5mC]*dA*d[5mC]*d[5mC]*d[5mC]*dG*dT*d[5mC]*kT*kG*kG; antisense) [compound 829955]
[4]
  % Inhibition: 52%

## 799193 (antisense kT*kA*kA*dA*dT*dT*dT*d[5mC]*d[5mC]*dA*dA*dT*dG*kA*kG*kA) [compound 799193]
[5]
  % Inhibition: 43%

## 799156 (antisense kG*kA*kA*dA*dG*dA*dA*dG*dA*dG*dT*dT*dA*kG*kG*kT) [compound 799156]
[5]
  % Inhibition: 37%

## 799351 (kT*kT*kT*dA*dG*d[5mC]*dT*dG*dT*d[5mC]*dA*dG*dA*kT*kA*kA; antisense) [compound 799351]
[3]
  % Inhibition: 31%

## 798752 (k[5mC]*kG*kG*d[5mC]*d[5mC]*dG*dG*dG*d[5mC]*dA*dG*d[5mC]*dA*kG*kG*kA; antisense) [compound 798752]
[3]
  % Inhibition: 0%

## 799020 (kG*kA*k[5mC]*dT*dG*d[5mC]*dA*dA*dA*d[5mC]*d[5mC]*dT*d[5mC]*kT*k[5mC]*kT; antisense) [compound 799020]
[5]
  % Inhibition: 48%

## 829723 (antisense kG*k[5mC]*kA*dT*dG*d[5mC]*dG*d[5mC]*d[5mC]*dA*dG*dT*d[5mC]*kT*k[5mC]*k[5mC]) [compound 829723]
[2]
  % Inhibition: 54%

## 799989 (kT*kG*k[5mC]*dA*d[5mC]*d[5mC]*dT*dG*dG*d[5mC]*dA*dA*d[5mC]*k[5mC]*kT*kG; antisense) [compound 799989]
[3]
  % Inhibition: 57%

## 799408 (antisense kT*kT*kA*dA*dA*dT*d[5mC]*d[5mC]*dT*dG*dA*dG*dA*kA*k[5mC]*kA) [compound 799408]
[3]
  % Inhibition: 27%

## 790485 (k[5mC]*kA*k[5mC]*d[5mC]*dT*dG*dA*dA*d[5mC]*dA*d[5mC]*dT*dT*kT*kG*k[5mC]; antisense) [compound 790485]
[3]
  % Inhibition: 26%

## 799595 (k[5mC]*kT*k[5mC]*dT*dG*dA*dA*d[5mC]*dG*dG*dA*dA*dA*kG*kA*kA; antisense) [compound 799595]
[6]
  % inhibition of SMAD7 mRNA expression: 35%

## 799374 (antisense kT*kT*kG*d[5mC]*dA*d[5mC]*d[5mC]*dT*dT*dT*dT*dT*dA*kA*kA*k[5mC]) [compound 799374]
[3]
  % Inhibition: 30%

## 830160 (antisense kT*kG*kG*dT*dG*dT*dG*dT*dT*dA*dA*d[5mC]*d[5mC]*kA*k[5mC]*kT) [compound 830160]
[3]
  % Inhibition: 54%

## 772808 (k[5mC]*k[5mC]*k[5mC]*d[5mC]*dA*dT*dT*d[5mC]*dA*dT*dT*dA*dA*kG*k[5mC]*k[5mC]; antisense) [compound 772808]
[2]
  % Inhibition: 34%

## 799749 (antisense kT*kG*k[5mC]*dT*dT*dG*dG*d[5mC]*d[5mC]*dT*dT*dA*d[5mC]*k[5mC]*kA*kT) [compound 799749]
[1]
  % Inhibition: 17%

## 829870 (antisense k[5mC]*k[5mC]*kA*dG*dT*dG*dT*dG*dG*d[5mC]*dG*dG*dA*k[5mC]*kT*kT) [compound 829870]
[4]
  % Inhibition: 19%

## 798848 (kG*kA*kT*dT*dT*dT*dG*d[5mC]*dT*d[5mC]*d[5mC]*dG*d[5mC]*kA*k[5mC]*k[5mC]; antisense) [compound 798848]
[3]
  % Inhibition: 40%

## 798865 (kG*kG*kA*dG*dT*d[5mC]*d[5mC]*dG*dG*dG*dT*dT*dG*kT*k[5mC]*k[5mC]; antisense) [compound 798865]
[3]
  % Inhibition: 8%

## 799740 (antisense kT*kT*kA*dA*dA*dT*dA*dA*d[5mC]*dT*dG*dT*d[5mC]*k[5mC]*kT*k[5mC]) [compound 799740]
[6]
  % inhibition of SMAD7 mRNA expression: 48%

## 801145 (antisense kA*k[5mC]*kG*d[5mC]*dT*dG*dT*dG*dG*dT*dT*dT*dG*kT*kG*kG) [compound 801145]
[2]
  % Inhibition: 0%

## 799870 (kA*k[5mC]*k[5mC]*d[5mC]*dA*dG*dA*dA*dG*d[5mC]*dT*dG*d[5mC]*kT*kG*kT; antisense) [compound 799870]
[3]
  % Inhibition: 18%

## 799725 (antisense kG*kG*k[5mC]*d[5mC]*dA*d[5mC]*dT*dG*d[5mC]*dA*dG*d[5mC]*d[5mC]*k[5mC]*kT*kA) [compound 799725]
[1]
  % Inhibition: 0%

## 799121 (antisense k[5mC]*k[5mC]*kT*dA*dA*dT*dA*dG*d[5mC]*dA*dG*dA*dG*k[5mC]*kT*kT) [compound 799121]
[5]
  % Inhibition: 25%

## 799782 (k[5mC]*kA*kT*dA*dA*dT*dA*dG*dG*dT*dG*dT*d[5mC]*kA*kA*kT; antisense) [compound 799782]
[1]
  % Inhibition: 4%

## 772535 (antisense k[5mC]*k[5mC]*kG*d[5mC]*dA*d[5mC]*dA*d[5mC]*d[5mC]*dA*dT*dG*dA*kA*kG*kA) [compound 772535]
[2]
  % Inhibition: 29%

## 799417 (antisense kG*kG*k[5mC]*d[5mC]*dA*dA*dA*d[5mC]*dA*dT*dT*d[5mC]*dT*k[5mC]*k[5mC]*k[5mC]) [compound 799417]
[5]
  % inhibition of SMAD7 mRNA expression: 26%

## 829946 (kG*k[5mC]*kA*dG*d[5mC]*d[5mC]*dA*dG*dT*dT*dA*dA*dT*k[5mC]*kA*kT; antisense) [compound 829946]
[4]
  % Inhibition: 44%

## 799347 (kA*kA*kG*dG*dA*dG*dT*dT*dT*d[5mC]*dA*dG*dG*kG*kT*k[5mC]; antisense) [compound 799347]
[5]
  % inhibition of SMAD7 mRNA expression: 59%

## 829715 (antisense kT*k[5mC]*kT*d[5mC]*d[5mC]*d[5mC]*dG*dG*dA*dG*dG*d[5mC]*d[5mC]*kG*kG*kG) [compound 829715]
[2]
  % Inhibition: 40%

## 798957 (antisense kA*kT*kT*d[5mC]*dT*dT*dT*dT*d[5mC]*dA*dT*dA*dA*kG*k[5mC]*kT) [compound 798957]
[5]
  % Inhibition: 28%

## 798900 (k[5mC]*k[5mC]*kA*dG*d[5mC]*dA*d[5mC]*dG*dG*dG*d[5mC]*dA*dG*k[5mC]*kT*kG; antisense) [compound 798900]
[3]
  % Inhibition: 0%

## 799134 (antisense kA*k[5mC]*kT*dG*d[5mC]*dT*dA*dA*dG*d[5mC]*dA*dT*dG*kT*k[5mC]*k[5mC]) [compound 799134]
[5]
  % Inhibition: 17%

## 800014 (kT*kA*kA*dA*dG*d[5mC]*dA*dT*dA*dA*dA*dA*dT*k[5mC]*k[5mC]*kT; antisense) [compound 800014]
[7]
  % Inhibition: 21%

## 799002 (antisense kA*k[5mC]*kA*dG*d[5mC]*d[5mC]*dG*d[5mC]*dA*d[5mC]*dA*d[5mC]*dT*k[5mC]*kA*k[5mC]) [compound 799002]
[5]
  % Inhibition: 15%

## 829959 (kT*kT*kA*dT*dT*dA*dA*dT*dG*dG*dT*d[5mC]*dT*kG*k[5mC]*kT; antisense) [compound 829959]
[4]
  % Inhibition: 12%

## 799245 (kG*kT*kA*dT*d[5mC]*dT*dG*dG*dG*d[5mC]*d[5mC]*dA*d[5mC]*kT*kG*kG; antisense) [compound 799245]
[5]
  % inhibition of SMAD7 mRNA expression: 18%

## 799630 (k[5mC]*k[5mC]*k[5mC]*dT*dA*dT*d[5mC]*d[5mC]*d[5mC]*dA*dG*dA*dG*k[5mC]*k[5mC]*kT; antisense) [compound 799630]
[1]
  % Inhibition: 43%

## 799701 (antisense k[5mC]*kT*kA*d[5mC]*dA*dG*dT*dT*d[5mC]*d[5mC]*dA*dG*dA*kA*k[5mC]*kA) [compound 799701]
[6]
  % inhibition of SMAD7 mRNA expression: 46%

## 799848 (kA*kG*k[5mC]*d[5mC]*dG*dA*dT*d[5mC]*dA*d[5mC]*dA*dA*dA*kA*kG*kG; antisense) [compound 799848]
[1]
  % Inhibition: 59%

## 799228 (k[5mC]*kA*kT*dA*dG*dA*dA*dA*dA*dA*dA*dA*d[5mC]*kA*k[5mC]*k[5mC]; antisense) [compound 799228]
[5]
  % Inhibition: 4%

## 799872 (kA*kA*kG*dT*dT*dA*dA*dT*d[5mC]*dA*dT*dT*dA*k[5mC]*kT*kT; antisense) [compound 799872]
[7]
  % Inhibition: 0%

## 830204 (kG*kT*kA*dT*d[5mC]*d[5mC]*dA*dT*d[5mC]*dA*dA*d[5mC]*dT*kG*k[5mC]*kT; antisense) [compound 830204]
[3]
  % Inhibition: 59%
